{
  "source": "patent US20240166686A1",
  "about": "“THERAPEUTIC PEPTIDES” (Kyoto University, priority 2017, published 2024)",
  "key": {"[1]": {"tested_on": "ddY mouse", "experiment": "Elevated plus-maze (EPM) test", "type": "in vivo", "method": "The test was conducted 30 minutes after oral administration of a sample, and the evaluation was conducted based on the 5-minute test time. 23 to 27 g male ddY mice were used as animals to be studied. Cumulative time in open arms was recorded, and the percentage (%) of the time in open arms was used as an index for an anxiolytic-like effect.\nThe anxiolytic-like effect of a peptide or peptide conjugate can be evaluated by an elevated plus-maze test which has been developed as an anxiety-related behavior evaluation method for screening for anti-anxiety agents and is widely used (FIG. 1). Specifically, a candidate substance is orally or intraperitoneally administered to each mouse. 30 minutes later, the mouse is placed in an elevated plus-maze. The strength of the anxiolytic-like effect can be evaluated by using the number of entries into open arms and change in residence time in the open arms as indexes.\n(§1) The elevated plus-maze consists of two open arms (25 cm×5 cm) and two closed arms (25 cm×5 cm×15 cm), and these arms are connected to a central platform elevated by 50 cm from the floor (see FIG. 1). In spite of such an elevated position, mice can walk safely in the closed arms because the closed arms are fenced. On the other hand, mice waking in the open arms feel anxious about falling from the elevated position because the open arms are open without being fenced. Therefore, a longer time when a mouse stays in the open arms means that mouse's feeling of anxiety is more alleviated, and serves as an index for an anxiolytic-like effect.\n(§2) As shown in the right diagram of FIG. 1, a sample was administered to each mouse (ddY mouse, male, 23 to 27 g) 30 minutes before the test. 30 minutes later, the mouse was placed on the central platform facing one of the open arms to start the test. Cumulative time in the open arms was recorded during the 5-minute test time. The percentage of the time in the open arms was calculated as an index for an anxiolytic-like effect.\nThe data obtained by the test was indicated by the sum of a mean and a standard error of the mean (SEM). The data shown in FIGS. 1 to 9, 17, 18, 20, and 21 was analyzed by one-way or two-way ANOVA. Subsequently, study was conducted for multiple comparison by the Tukey Kramer method. P-value of <0.05 is denoted in the drawings as “*”; p-value of <0.01 is denoted in the drawings as “**”."}, "[2]": {"tested_on": "ddY mice", "experiment": "Tail suspension test", "type": "in vivo, mouse", "conditions": "30 min before 6-min suspension", "method": "Antidepressant-like effect can be evaluated by a tail suspension test. The tail suspension test is an experimental method used to screen potential antidepressant drugs (Can et al., 2012, J Vis Exp., 59:e3769). The amount of time that a mouse is immobile (i.e. is not displaying escape behavior) during the six minutes is measured to provide an immobility time. […] Therefore, if a reduction of immobility time is observed when testing a test substance, it can be concluded that the test substance has anti-depressant properties. Immobility is considered a despair state, and, therefore, a reduction of immobility time also indicates an increase in motivation (i.e., that the test substance has motivation-increasing properties).\nThe peptide SYLPPLT (SEQ ID NO: 4) was administered orally to mice (ddY mice, males, 24˜30 g) at 0.03 mg/kg, 0.1 mg/kg or 0.3 mg/kg and 30 minutes later the mice were suspended by their tails for six minutes.(n=11 to 14)"}, "[3]": {"target": "T1, serotonin 5-HT1A receptor (Mus musculus, UniProt Q64264)", "T1 construct": "from tissue; host or cells: whole living animal (ddY mouse, male)", "T1 sequence (Q64264 1-421)": "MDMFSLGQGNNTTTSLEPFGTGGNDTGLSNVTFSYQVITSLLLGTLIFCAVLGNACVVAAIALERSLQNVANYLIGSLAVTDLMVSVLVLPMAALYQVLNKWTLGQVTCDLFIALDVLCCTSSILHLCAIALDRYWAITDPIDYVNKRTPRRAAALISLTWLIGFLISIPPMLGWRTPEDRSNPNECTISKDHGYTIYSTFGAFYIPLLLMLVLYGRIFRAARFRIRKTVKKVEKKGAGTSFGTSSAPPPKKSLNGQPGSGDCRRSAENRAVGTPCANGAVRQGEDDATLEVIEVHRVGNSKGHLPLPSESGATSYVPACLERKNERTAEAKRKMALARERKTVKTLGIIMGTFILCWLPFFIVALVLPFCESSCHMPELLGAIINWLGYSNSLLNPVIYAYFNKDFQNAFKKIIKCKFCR", "experiment": "Elevated plus-maze test with 5-HT1A receptor antagonist WAY100135", "type": "in vivo", "conditions": "elevated plus-maze with or without WAY100135", "from_the_text": "as §1, §2\nThe peptide SYLPPLTT (SEQ ID NO: 1) or the peptide SYLPPLT (SEQ ID NO: 4) (dose: 1.0 mg/kg) was used in combination with a serotonin 5-HT1A receptor antagonist WAY100135 (dose: 10 mg/kg) and orally administered (p.o.) to each mouse, which was then used in the elevated plus-maze test (n=4 to 6).\nThe peptide YHIEPV (SEQ ID NO:2) was orally administered as a sample to mice 30 minutes before an elevated plus-maze test, with or without WAY100135, an antagonist selective for 5-HT1A receptor (n=13-15). WAY100135 was administered 50 minutes before the elevated plus-maze test. Separately, the peptide YHIEPV (SEQ ID NO:2) was orally administered as a sample to mice 30 minutes before an elevated plus-maze test, with or without naltrindole, an […] receptor antagonist, which was administered 50 minutes before the elevated plus-maze test (n=11-15)."}, "[4]": {"conditions": "stated in Non Patent Literature 1; cited from earlier work"}, "[5]": {"target": "T2, δ opioid receptor (Mus musculus, UniProt P32300)", "T2 construct": "orally administered as a sample to mice 30 minutes before an elevated plus-maze test, with or without naltrindole; from tissue; host or cells: whole living animal (ddY mouse, male)", "T2 sequence (P32300 whole entry)": "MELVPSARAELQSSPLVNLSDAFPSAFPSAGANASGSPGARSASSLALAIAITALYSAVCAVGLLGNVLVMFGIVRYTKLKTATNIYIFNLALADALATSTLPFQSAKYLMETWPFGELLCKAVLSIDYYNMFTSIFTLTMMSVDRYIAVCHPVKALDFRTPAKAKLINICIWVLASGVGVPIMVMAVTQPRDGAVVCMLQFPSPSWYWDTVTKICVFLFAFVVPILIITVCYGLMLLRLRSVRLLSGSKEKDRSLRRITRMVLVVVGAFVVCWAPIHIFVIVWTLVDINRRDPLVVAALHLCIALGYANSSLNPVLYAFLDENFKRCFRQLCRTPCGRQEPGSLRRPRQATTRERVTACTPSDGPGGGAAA", "experiment": "Elevated plus-maze test with opioid receptor antagonist naltrindole", "type": "in vivo", "conditions": "elevated plus-maze with or without naltrindole given 50 min before test; peptide oral 30 min before", "from_the_text": "as §1, §2\nThe peptide YHIEPV (SEQ ID NO:2) was orally administered as a sample to mice 30 minutes before an elevated plus-maze test, with or without WAY100135, an antagonist selective for 5-HT1A receptor (n=13-15). WAY100135 was administered 50 minutes before the elevated plus-maze test. […]"}, "[6]": {"tested_on": "ddY mice", "conditions": "general statement on anti-depressant drugs; cited from earlier work"}, "[7]": {"conditions": "oral 0.1 mg/kg, 30 min before 5-min test, vs vehicle saline"}, "[8]": {"conditions": "Example 16, oral, SYLPPLTT 0.3, 1, SYLPPLT 0.1, 0.3, 1, YHIEPV 1, 3, 10, diazepam 1, 3, 10 mg/kg, result not split by dose"}, "[9]": {"conditions": "oral 0.3 mg/kg, 30 min before 5-min test, vs vehicle saline"}, "[10]": {"conditions": "oral 1 mg/kg, 30 min before 5-min test, vs vehicle saline"}, "[11]": {"conditions": "oral 10 mg/kg, 30 min before 5-min test, vs vehicle saline"}},
  "note": "Read-outs that look alike come from different tables or passages of the source.",
  "data": [
    {"compound": "YLLNNK", "values": [
      {"measurement": "ratio of an open arm residence time", "setting": "[1]; [7]", "result": "increased"}
    ]},
    {"compound": "YLL (NYLLVKG)", "values": [
      {"measurement": "ratio of an open arm residence time", "setting": "[1]; [7]", "result": "increased"}
    ]},
    {"compound": "SYLPPLT", "values": [
      {"measurement": "immobility time", "setting": "[2]; oral 0.03 mg/kg", "result": "decrease"},
      {"measurement": "immobility time", "setting": "[2]; oral 0.1 mg/kg", "result": "decrease"},
      {"measurement": "immobility time", "setting": "[2]; oral 0.3 mg/kg", "result": "decrease"},
      {"measurement": "anxiolytic-like effect mediated by serotonin 5-HT1A receptor", "setting": "[3]", "result": "mediated by activation of serotonin 5-HT1A receptor"},
      {"measurement": "ratio of an open arm residence time", "setting": "[1]; [8]", "result": "increased"},
      {"measurement": "ratio of an open arm residence time", "setting": "[1]; [7]", "result": "increased"},
      {"measurement": "ratio of an open arm residence time", "setting": "[1]; [9]", "result": "increased"},
      {"measurement": "ratio of an open arm residence time", "setting": "[1]; [10]", "result": "statistically significant"}
    ]},
    {"compound": "Rubiscolin-6", "values": [
      {"measurement": "anxiolytic effect", "setting": "[4]", "result": "has an anxiolytic effect"}
    ]},
    {"compound": "YLLV", "values": [
      {"measurement": "ratio of an open arm residence time", "setting": "[1]; [7]", "result": "increased"}
    ]},
    {"compound": "NYLLVKG", "values": [
      {"measurement": "ratio of an open arm residence time", "setting": "[1]; [7]", "result": "increased"}
    ]},
    {"compound": "YHIEPV", "values": [
      {"measurement": "anxiolytic-like effect mediated by serotonin 5-HT1A receptor", "setting": "[3]", "result": "not mediated by activation of serotonin 5-HTopio1A receptor"},
      {"measurement": "ratio of an open arm residence time", "setting": "[1]; [8]", "result": "increased"},
      {"measurement": "ratio of an open arm residence time", "setting": "[1]; [10]", "result": "increased"},
      {"measurement": "ratio of an open arm residence time", "setting": "[1]; oral 3 mg/kg, 30 min before 5-min test, vs vehicle saline", "result": "statistically significant"},
      {"measurement": "ratio of an open arm residence time", "setting": "[1]; [11]", "result": "statistically significant"},
      {"measurement": "anxiolytic-like effect mediated by opioid receptor", "setting": "[5]", "result": "mediated by activation 8-opioid receptor"}
    ]},
    {"compound": "YLLVR", "values": [
      {"measurement": "ratio of an open arm residence time", "setting": "[1]; [7]", "result": "increased"}
    ]},
    {"compound": "FLLVK", "values": [
      {"measurement": "ratio of an open arm residence time", "setting": "[1]; [7]", "result": "increased"}
    ]},
    {"compound": "YLVK", "values": [
      {"measurement": "ratio of an open arm residence time", "setting": "[1]; [7]", "result": "increased"}
    ]},
    {"compound": "SYLPPLTT", "values": [
      {"measurement": "anxiolytic-like effect mediated by serotonin 5-HT1A receptor", "setting": "[3]", "result": "mediated by activation of serotonin 5-HT1A receptor"},
      {"measurement": "ratio of an open arm residence time", "setting": "[1]; [8]", "result": "increased"},
      {"measurement": "ratio of an open arm residence time", "setting": "[1]; [9]", "result": "increased"},
      {"measurement": "ratio of an open arm residence time", "setting": "[1]; [10]", "result": "statistically significant"}
    ]},
    {"compound": "YLLAVK", "values": [
      {"measurement": "ratio of an open arm residence time", "setting": "[1]; [8]", "result": "increased"},
      {"measurement": "ratio of an open arm residence time", "setting": "[1]; [7]", "result": "increased"}
    ]},
    {"compound": "CN1C(=O)CN=C(c2ccccc2)c2cc(Cl)ccc21", "note": "[diazepam, Diazepam, reference compound]", "values": [
      {"measurement": "ratio of an open arm residence time", "setting": "[1]; [8]", "result": "increase observed"}
    ]},
    {"compound": "WLLVK", "values": [
      {"measurement": "ratio of an open arm residence time", "setting": "[1]; [7]", "result": "increased"}
    ]},
    {"compound": "SYLPPL", "values": [
      {"measurement": "ratio of an open arm residence time", "setting": "[1]; [9]", "result": "increased"},
      {"measurement": "ratio of an open arm residence time", "setting": "[1]; [10]", "result": "increased"},
      {"measurement": "ratio of an open arm residence time", "setting": "[1]; [11]", "result": "increased"}
    ]},
    {"compound": "YLLVK", "values": [
      {"measurement": "ratio of an open arm residence time", "setting": "[1]; oral 0.03 mg/kg, 30 min before 5-min test, vs vehicle saline", "result": "significantly increased"},
      {"measurement": "ratio of an open arm residence time", "setting": "[1]; oral 0.1 mg/kg, 30 min before 5-min test, vs vehicle saline, 0.1 mg/kg", "result": "significantly increased"}
    ]},
    {"compound": "LLVK", "values": [
      {"measurement": "ratio of an open arm residence time", "setting": "[1]; [7]", "result": "increased"}
    ]},
    {"compound": "CN(C)CCCN1c2ccccc2CCc2ccccc21", "note": "[imipramine]", "values": [
      {"measurement": "immobility time", "setting": "[6]", "result": "reduces immobility time"}
    ]},
    {"compound": "LVK", "values": [
      {"measurement": "ratio of an open arm residence time", "setting": "[1]; [7]", "result": "increased"}
    ]}
  ]
}
